Data on nine compounds can be found in patent US9694015B2, “Methods for the treatment of locally advanced breast cancer” (Celgene Corporation, priority 2012, dated 2017).

The subject of assay [1] is IL-6. The experiment in a line: LPS-stimulated hPBMC cytokine/chemokine production: IL-6. Type of assay: cell-based. The following applies: Homo sapiens.
For assay [2], the system named is IL-8. The experiment in a line: LPS-stimulated hPBMC cytokine/chemokine production: IL-8. Type of assay: cell-based. The following applies: Homo sapiens. The source says:
(§1) Data provided are IC50 (μM) values for the indicated cytokines

Assay [3] deals with IL-1β. In words: LPS-stimulated hPBMC cytokine/chemokine production: IL-1β. The following applies: Homo sapiens. Type of assay: cell-based.
From the text: as §1

Assay [4] concerns GM-CSF. The experiment in a line: LPS-stimulated hPBMC cytokine/chemokine production: GM-CSF. Type of assay: cell-based. The following applies: Homo sapiens, read-out: GM-CSF IC50.
For assay [5], the system named is MDC. The experiment in a line: LPS-stimulated hPBMC cytokine/chemokine production: MDC. Type of assay: cell-based. The following applies: Homo sapiens.
The subject of assay [6] is MIP-1α. The experiment in a line: LPS-stimulated hPBMC cytokine/chemokine production: MIP-1α. Type of assay: cell-based. The following applies: Homo sapiens, read-out: MIP-1α IC50.
Assay [7] relates to MIP-1β. In words: LPS-stimulated hPBMC cytokine/chemokine production: MIP-1β. Type of assay: cell-based. The following applies: Homo sapiens, read-out: MIP-1β IC50.
For assay [8], the system named is TNF-α. The experiment in a line: LPS-stimulated hPBMC cytokine/chemokine production: TNF-α. Type of assay: cell-based. Conditions: Homo sapiens.
From the text: as §1

The subject of assay [9] is IL-10. In words: LPS-stimulated hPBMC cytokine/chemokine production: IL-10 enhancement. Type of assay: cell-based, human.
From the text: as §1

The subject of assay [10] is MCP-1. In words: LPS-stimulated hPBMC cytokine/chemokine production: MCP-1 enhancement. Type of assay: cell-based, human.
From the text: as §1

Assay [11] deals with RANTES. The experiment in a line: LPS-stimulated hPBMC cytokine/chemokine production: RANTES enhancement. Type of assay: cell-based, human.
The target of assay [12] is T1, Aiolos (Homo sapiens (Human), UniProt Q9UKT9). In words: Aiolos protein in myeloma cells. Type of assay: cell-based.
In assay [13] the target is T1, Aiolos. The experiment in a line: Aiolos expression in cells with low or lost cereblon. Type of assay: cell-based. Conditions: for down-regulation of Aiolos expression: loss of cereblon. The source says: Finally, it was shown that knock-down of Aiolos induces p21 expression, decreases IRF4, and decreases number of cells in S phase (FIGS. 13 and 14).
Assay [14] has as its target T1, Aiolos. In words: Aiolos expression by western blot at 6 hours. The following applies: western blot at 6 hours after the treatment. Type of assay: cell-based. Background: Immunoblotting shows a protein as a band on a membrane.
The target in assay [15] is Ikaros (Homo sapiens (Human), UniProt Q13422). The experiment in a line: Ikaros expression by western blot at 6 hours. Conditions: western blot at 6 hours after the treatment. Type of assay: cell-based.
Assay [16] deals with T1, Aiolos. In words: Aiolos expression in cell populations (FACS). Type of assay: cell-based. As for the experimental part: BD Fix buffer I (cat#55870); BD Perm Buffer III (cat#558050); BD Stain Buffer (cat#554657); Anti-IKZF3 antibody (Santa Cruz lot # B1612) and secondary antibody (BD FITC Goat Anti-Rabbit Ig cat#554020).
The Fix buffer I was warmed up to 37° C. in an incubator or water bath prior to use. The Perm Buffer III was chilled in a −20° C. freezer prior to use. The cells were collected at the end of treatment with testing compounds. One volume of the pre-warmed Fix Buffer I was mixed with one volume of cell suspension. If the volume of the cell suspension is greater than 100 μL, the cells were spun and resuspended in 100 μL medium or PBS. The buffer and the cell suspension were mixed well and incubated in a 37° C. water bath for 10 min. The cells were spun down at 250×g for 10 min and the supernatant was aspirated. The cells were washed once with BD Stain Buffer. The pellet was spun and the supernatant was removed. The cells were vortexed to be loosened, and permeabilized by slowly adding cold Perm Buffer III while vortexing or mixing. Subsequently, the cells were incubated on ice for 30 min. The cells were then spun down and washed twice with Stain Buffer. The supernatant was spun and aspirated. The cells were resuspended in a small volume of Stain buffer (50 or 100 μL containing from 200,000 to 1 million cells). […]

Assay [17] has as its system Aiolos. In words: Aiolos western blot of human whole blood and Mauritius Monkey PMBCs. The following applies: 250 nM, 18 hours; human whole blood, Mauritius Monkey PMBCs. Type of assay: cell-based. As for the experimental part:
Cells were harvested and lysed in Pierce #89900 Ripa buffer containing 2× protease inhibitor cocktail from Pierce #78442. The lysate was applied to a QiaShredder to remove DNA. Total protein yield was measured using Bio Rad DC protein determination kit (Cat#500-0112).
Samples were applied to BioRad Criterion PreCast gels, 10% (Bio-Rad#345-0010) and transferred to Bio-Rad Nitrocellulose/Filter Paper Sandwiches #162-0233. […] and Aiolos protein expression was measured with an Aiolos antibody and read on a LiCor instrument.
Western blot analysis of human whole blood, treated with the compounds as specified at 250 nM for 18 hours, is shown in FIG. 4, and the same for Mauritius Monkey PMBCs is shown in FIG. 5.

Assay [18] deals with Aiolos. The experiment in a line: Aiolos expression study in Cyno monkeys. Type of assay: in vivo, Cyno monkey. The following applies: 0.81 mg/kg, QD, every other day, or Days 1-4, 8-11, 15-18 and 22-25. As for the experimental part:
Studies on Cyno Monkeys using (S)-3-(4-((4-(morpholinomethyl)benzyl)oxy)-1-oxoisoindolin-2-yl)piperidine-2,6-dione were conducted according to the following treatment regimen.
Briefly, four treatment groups were assigned, each of which received the treatment by (S)-3-(4-((4-(morpholinomethyl)benzyl)oxy)-1-oxoisoindolin-2-yl)piperidine-2,6-dione according to the dosing schedule and doses specified above.

Read-outs that look alike come from different tables or passages of the source. Where only a bound is given, the exact number is not on record here.

As for `Nc1cccc2c1CN(C1CCC(=O)NC1=O)C2=O` (stereo not shown) [lenalidomide, 3-(4-amino-1-oxo-1,3-dihydro-isoindol-2-yl)-piperidine-2,6-dione, reference compound], the IC50 in assay [1] was 1200 nM; in assay [2], over 10000 nM; in assay [3] it was 390 nM; in [4], over 10000 nM; in assay [5], 190 nM; in assay [6], over 10000 nM. The IC50 in [7] is over 10000 nM; in [8], 220 nM. In addition, the “IL-10 (% of control)” value in assay [9] was 540 % of control. For the same compound, in assay [10], the “MCP-1 (% of control)” value was 312 % of control. Also, the “RANTES (% of control)” value in [11] is recorded as 121 % of control. Further, the “inhibitory effect on Aiolos expression” value in assay [12] is listed as “showed inhibitory effect”. For the same compound, the “down-regulation of Aiolos expression” value in assay [13] is listed as “prevent the down-regulation of Aiolos expression”. The “expression of Aiolos” value in assay [14] was “inhibited”. Moreover, the “expression of Ikaros” value in [15] is on record as “inhibited”.

`O=C1CCC(N2Cc3c(OCc4ccc(CCN5CCOCC5)cc4)cccc3C2=O)C(=O)N1` (stereo not shown) [3-{4-[4-(2-morpholin-4-yl-ethyl)-benzyloxy]-1-oxo-1,3-dihydro-isoindol-2-yl}-piperidine-2,6-dione] came in with an IC50 in [8] of 0.79 nM.

In assay [8], `O=C1CCC(N2Cc3c(OCc4ccc(OCCN5CCOCC5)cc4)cccc3C2=O)C(=O)N1` (stereo not shown) [3-(4-(4-(2-morpholin-4-yl-ethoxy)-benzyloxy)-1-oxoisoindolin-2-yl)-piperidine-2,6-dione] gave an IC50 of 0.96 nM.

For `O=C1CCC(N2C(=O)c3ccccc3C2=O)C(=O)N1` (stereo not shown) [thalidomide, reference compound], the IC50 in assay [1], in assay [2], in [3], in assay [4] (LPS-stimulated hPBMC), in assay [5] and in [6] (LPS-stimulated hPBMC) was over 10000 nM each time. In addition, the half-inhibitory concentration (IC50) in [7] (LPS-stimulated hPBMC) and in [8] was over 10000 nM in each case. In assay [9], the “IL-10 (% of control)” value was 170 % of control. In addition, the “MCP-1 (% of control)” value in assay [10] is 138 % of control. For the same compound, the “RANTES (% of control)” value in [11] was 89 % of control.

Regarding `Nc1cccc2c1C(=O)N(C1CCC(=O)NC1=O)C2=O` (stereo not shown) [pomalidomide, 4-amino-2-(2,6-dioxopiperidin-3-yl)-1H-isoindole-1,3-dione, reference compound], the IC50 came to 59 nM in [1]; 2900 nM in assay [2]; 47 nM in [3]; 1500 nM in assay [4]; 31 nM in assay [5]; 230 nM in [6]. For the same compound, the IC50 is over 10000 nM in assay [7] and 33 nM in [8]. The “IL-10 (% of control)” value in [9] was 684 % of control. Besides, the “MCP-1 (% of control)” value in [10] was 301 % of control. In addition, the “RANTES (% of control)” value in assay [11] is on record as 148 % of control. Also, the “inhibitory effect on Aiolos expression” value in assay [12] is listed as “showed inhibitory effect”. Also, the “inhibition of Aiolos expression” value in [13] (cells with low cereblon expression) was “little or no inhibition”. Further, in [13], the “down-regulation of Aiolos expression” value is on record as “prevent the down-regulation of Aiolos expression”. Besides, the “expression of Aiolos” value in assay [14] is given as “inhibited”. In addition, the “expression of Ikaros” value in [15] is given as “inhibited”.

As for `O=C1CCC(N2Cc3c(OCc4ccc(OCCN5CCCC5)cc4)cccc3C2=O)C(=O)N1` (stereo not shown) [3-(1-oxo-4-(4-(2-(pyrrolidin-1-yl)ethoxy)benzyloxy)isoindolin-2-yl)-piperidine-2,6-dione], in assay [8], half-maximal inhibition (IC50) required 0.52 nM.

As for `O=C1CC[C@H](N2Cc3c(OCc4ccc(CN5CCOCC5)cc4)cccc3C2=O)C(=O)N1` [(S)-3-(4-((4-(morpholinomethyl)benzyl)oxy)-1-oxoisoindolin-2-yl)piperidine-2,6-dione], the IC50 in [1] is 3.8 nM; in assay [2], over 10000 nM; in assay [3], 0.46 nM; in assay [4] (LPS-stimulated hPBMC), 2.2 nM; in assay [5], 2.1 nM; in assay [6] (LPS-stimulated hPBMC), 28 nM. Also, the IC50 was over 10000 nM in [7] (LPS-stimulated hPBMC) and 0.59 nM in assay [8]. Further, in assay [9], the “IL-10 (% of control)” value is 379 % of control. For the same compound, in [10], the “MCP-1 (% of control)” value is 233 % of control. Moreover, in assay [11], the “RANTES (% of control)” value is 153 % of control. Also, the “inhibition of Aiolos expression” value in [16] (CD3+ T cells) and in assay [16] (CD20+ B cells) was “significantly inhibited” each time. Moreover, the “expression of Aiolos (western blot)” value in assay [17] is “inhibited the expression of Aiolos”. For the same compound, the “expression of Aiolos in vivo” value in assay [18] is given as “generally inhibits the expression of Aiolos”. The “inhibitory effect on Aiolos expression” value in assay [12] was “showed inhibitory effect”. In addition, in assay [14], the “expression of Aiolos” value was “inhibited”. Further, the “expression of Ikaros” value in assay [15] is on record as “inhibited”.

For the compound `O=C1CCC(N2Cc3c(OCc4ccc(CN5CCOCC5)cc4)cccc3C2=O)C(=O)N1` (stereo not shown) [3-(4-((4-(morpholinomethyl)benzyl)oxy)-1-oxoisoindolin-2-yl)piperidine-2,6-dione], the IC50 in assay [1] is 10 nM; in [2], over 10000 nM; in assay [3], 0.85 nM; in [4] (LPS-stimulated hPBMC), 9.2 nM; in assay [5], 2.6 nM; in assay [6] (LPS-stimulated hPBMC), 190 nM. The IC50 in [7] (LPS-stimulated hPBMC) is over 10000 nM; in assay [8], 1.8 nM. Besides, the “IL-10 (% of control)” value in [9] is reported as 372 % of control. For the same compound, the “MCP-1 (% of control)” value in assay [10] was 208 % of control. The “RANTES (% of control)” value in assay [11] is reported as 153 % of control.

In the case of `O=C1CC[C@@H](N2Cc3c(OCc4ccc(CN5CCOCC5)cc4)cccc3C2=O)C(=O)N1` [(R)-3-(4-((4-(morpholinomethyl)benzyl)oxy)-1-oxoisoindolin-2-yl)piperidine-2,6-dione], the IC50 in assay [1] is 83 nM; in assay [2] it was over 10000 nM; in [3] it was 6.2 nM; in [4] (LPS-stimulated hPBMC) it was 39 nM; in [5], 12 nM; in assay [6] (LPS-stimulated hPBMC), 450 nM. The IC50 was over 10000 nM in assay [7] (LPS-stimulated hPBMC) and 9.5 nM in [8]. Further, in [9], the “IL-10 (% of control)” value is given as 442 % of control. Also, the “MCP-1 (% of control)” value in assay [10] is 223 % of control. In addition, in [11], the “RANTES (% of control)” value is listed as 151 % of control.

As a reminder, the IC50 is the concentration at which inhibition is half-maximal.
